Test results reported in patent US7901893B2, “NPC1L1 (NPC3) and methods of identifying ligands thereof” (Merck Sharp & Dohme Corp., priority 2004, dated 2011).

Key:
[1] = target: T1, mouse SR-B1 (Mus musculus, UniProt Q61009); test: Effect of ezetimibe on cholesterol uptake, SR-B1 transfected CHO cells; type: cell-based; details: EZ (10 μM), SR-BI
T1 construct: expressed in transfected cells
T1 sequence (Q61009 1-509): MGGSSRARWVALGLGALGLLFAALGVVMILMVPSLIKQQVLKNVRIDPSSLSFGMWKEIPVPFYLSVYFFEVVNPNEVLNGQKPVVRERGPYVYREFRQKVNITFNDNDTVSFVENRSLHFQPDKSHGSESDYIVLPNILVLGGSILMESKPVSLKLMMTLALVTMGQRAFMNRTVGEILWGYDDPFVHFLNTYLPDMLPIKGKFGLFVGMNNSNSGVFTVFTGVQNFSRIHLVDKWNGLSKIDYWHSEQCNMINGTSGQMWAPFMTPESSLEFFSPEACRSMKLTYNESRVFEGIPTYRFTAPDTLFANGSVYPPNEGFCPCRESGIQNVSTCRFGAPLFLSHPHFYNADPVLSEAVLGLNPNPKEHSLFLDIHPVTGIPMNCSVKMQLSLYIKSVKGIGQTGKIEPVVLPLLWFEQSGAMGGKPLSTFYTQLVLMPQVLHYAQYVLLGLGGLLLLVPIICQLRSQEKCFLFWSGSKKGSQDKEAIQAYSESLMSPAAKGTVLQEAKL
Method: The effect of ezetimibe on the ability of CHO cells stably transfected with mouse or rat NPC1L1 or mouse SR-B1 to take up ^3H-labeled cholesterol was evaluated in pulse-chase experiments. One cDNA clone of mouse NPC1L1 (C7) and three clones of rat NPC1L1 (C7, C17 and C21) were evaluated. The ability of CHO cells stably transfected with mouse SR-B1, mouse NPC1L1 and rat NPC1L1 to take up labeled cholesterol, in the absence of ezetimibe, was also evaluated in the pulse-chase experiments. Data generated in these experiments are set forth, below, in Tables 4 and 5. Additionally, the quantity of total cholesterol taken up by transfected and untransfected CHO cells in the presence of four different unlabeled cholesterol concentrations was also evaluated.
Starve. The maintenance media (F12 HAMS, 1% Pen/Strep, 10% FCS) was removed and the cells were rinsed with serum-free HAMS media. The serum-free media was then replaced with 1 mL “starve” media (F12 HAMS, Pen/Strep, 5% lipoprotein deficient serum (LPDS). The cells were then starved overnight.
Pre-Incubation/pre-dose. Media was removed from all plates and replaced with fresh starve media and preincubated for 30 minutes. Half of the wells received media containing ezetimibe (stock soln in EtOH; final conc.=10 μM).
^3H-Cholesterol Pulse. The following was added directly to each well: • 0.5 μCi ^3H-cholesterol (˜1.1×10^6 dpm/well) in 50 μl of a mixed bile salt micelle • 4.8 mM sodium taurocholate (2.581 mg/mL) • 0.6 mM sodium oleate (0.183 mg/mL) • 0.25 mM cholesterol (0.1 mg/mL) • Dispersed in “starve” media by ultrasonic vibration • Final media cholesterol concentration=5 μg/mL
Labeled cholesterol pulse time points were 4, 12, 24 minutes and 4 hours. Triplicate wells were prepared for each treatment.
Wash. At designated times, media was aspirated and cells were washed once with Hobbs Buffer A (50 mM Tris, 0.9% NaCl, 0.2% bovine serum albumin (BSA), pH 7.4) and once with Hobbs Buffer B (50 mM Tris, 0.9% NaCl, pH 7.4 (no BSA)) at 37° C.
A. 4, 12, 24 minute time points: Cells were digested overnight with 0.2N NaOH, 2 mL/well, room temperature. One 1.5 mL aliquot was removed from each well, neutralized & counted for radioactivity by scintillation counting.
B. 4 hour time point: The digested cells were analyzed by thin-layer chromatography to determine the content of cholesterol ester in the cells.
Extracts were spotted onto TLC plates and run for 30 minutes in 2 ml hexane:isopropanol (3:2) mobile phase for 30 minutes, followed by a second run in 1 ml hexane:isopropanol (3:2) mobile phase for 15 minutes.
C. Protein determination of cell extracts. Plates containing a sample of the cell extracts were placed on orbital shaker at 120 rpm for indicated times and then extracts are pooled into 12×75 tubes. Plates were dried and NaOH (2 ml/well) added. The protein content of the samples were then determined. Two additional 50 μl aliquots from all wells were assayed for total protein by the Pierce micro BCA method. The quantity of labeled cholesterol observed in the cells was normalized to the quantity of protein in the cells.

[2] = tested on: cholesterol absorption; details: cited from earlier work

Structure (SMILES): O=C1[C@H](CC[C@H](O)c2ccc(F)cc2)[C@@H](c2ccc(O)cc2)N1c1ccc(F)cc1 [ezetimibe]
- Cholesteryl Ester, dpm ± sem ([1]; 4 Hour Pulse): 9305 ± 401 dpm
- Cholesteryl Ester, dpm/mg protein ± sem ([1]; 4 Hour Pulse): 72782 ± 3181 dpm/mg protein
- Free Cholesterol, dpm ± sem ([1]; 4 Hour Pulse): 194519 ± 474 dpm
- Free Cholesterol, dpm/mg protein ± sem ([1]; 4 Hour Pulse): 1521341 ± 4185 dpm/mg protein
- Total Cholesterol, dpm ± sem ([1]; 4 Min Pulse): 10968 ± 821 dpm
- Total Cholesterol, dpm/mg protein ± sem ([1]; 4 Min Pulse): 92474 ± 2902 dpm/mg protein
- Total Cholesterol, dpm ± sem ([1]; 12 Min Pulse): 12349 ± 298 dpm
- Total Cholesterol, dpm/mg protein ± sem ([1]; 12 Min Pulse): 98956 ± 4447 dpm/mg protein
- Total Cholesterol, dpm ± sem ([1]; 24 Min Pulse): 23558 ± 1310 dpm
- Total Cholesterol, dpm/mg protein ± sem ([1]; 24 Min Pulse): 198725 ± 11713 dpm/mg protein
- ED50 ([2]; monkey): 0.5 µg/kg
- potency (ED50) in vivo ([2]; rhesus): 0.0005 mpk
